Assay results as given in patent US20240279304A1, “DSG2 COMPOSITIONS AND METHODS” (Arvada Therapeutics, Inc., priority 2021, published 2024).
“Also recorded” adds a separate entry of the source.

Key:
anti-DSG2 antibody = anti-DSG2 antibody meso scale discovery (MSD) assay, blocking of anti-DSG2 antibody; format: binding; details: for % inhibition: fraction C (table title)
Description: The DSG2 fusion polypeptides were tested for the ability to block anti-DSG2 antibody by an anti-DSG2 antibody meso scale discovery (MSD) assay. […] The DSG2 fusion polypeptides were subjected to size exclusion chromatography and different elution fractions were examined. […] As shown in Table 7 and FIG. 1B, FIG. 1C, and FIG. 1D, enriching for fraction C improved the ability of the DSG2 fusion polypeptides to block ARVC patient serum.

[1] = system: human iPSC cardiomyocytes; assay: CiPA multielectrode array (MEA) assay, sodium spike; format: cell-based; details: 1.1 μg/mL DSG2FP #1; anti-DSG2 antibodies 0.5 μg/mL
Description: To determine the effect of anti-DSG2 antibodies in cardiomyocytes, the cardiac in vitro proarrhythmia (CiPA) assay was performed (Sager et al. Am Heart J 2014; 167:292-300; the contents of which are herein incorporated by reference in its entirety). CiPA is envisioned to consist of four components: (1) an evaluation of the effects of test agents on cardiac ion channel assays; (2) in silico modeling of the cardiac action potential based on the ion channel results to integrate the data with cardiac function; (3) experimental measurement of test agent effects in human ventricular myocytes to confirm the modeling result; and (4) scoring the results. […] The sodium spike quantified below is a measurement of the specific sodium channel current in the cardiomyocyte and is also described in Blinova K, et al. Cell Rep. […] The parameters evaluated include measuring a change in the spike in the component of electrical signal propagation (e.g. sodium spike) and cell index—a function of cell impedance and cell number. […]
Commercially available anti-DSG2 antibodies were tested in the cardiomyocyte CiPA assay. […] The voltage (μV) is measured at time intervals of 0, 1 hour, 12 hours, 24 hours, 48 hours, 72 hours, and 96 hours. […]

**Q.** What does the source list for “DSG2FP#1: R&D Systems DSG2 extracellular domain (49-608 of SEQ ID NO: 30); linker IEGRMD; amino acids 100-330 of IgG1”?
**A.** ability to bind to and block anti-DSG2 antibody (in words) (anti-DSG2 antibody): able to bind and block anti-DSG2 antibody; % inhibition (anti-DSG2 antibody; sample: Anti-DSG2 antibody (200 ng/mL) control): 63.8%; % inhibition (anti-DSG2 antibody; sample: Anti-DSG2 antibody (1000 ng/mL) control): 88.4%; % inhibition (anti-DSG2 antibody; sample: no antibody control): 4.8%; rescue of the effect of anti-DSG2 antibodies on cardiomyocyte sodium spike (in words) [1]: rescued; also recorded: completely blocks the effect of the anti-DSG2 antibodies on the sodium spike
